# According to patent US6329349A, “Methods for reducing ischemic injury of the heart via the sequential administration of monophosphoryl lipid A and adenosine receptor agents” (priority 2000, dated 2001):
# Entries after “also recorded” stand apart in the source; their conditions may differ. Read-outs that look alike come from different tables or passages of the source.
# Experiments:
# [1] = system: Rat Brain A1 and A2 -Receptors; conditions: radioligand binding, Table I; cited from earlier work
# [2] = system: cultured chick ventricular myocytes; experiment: Simulated ischemia (hypoxia and glucose deprivation) injury in cultured ventricular myocytes, percentage of cells killed; type: cell-based; conditions: for number of cells killed; agent present during prolonged ischemia after MLA pretreatment vs vehicle pretreatment: MLA 300 ng/ml for 4 h, 24 h prior, agent present during 90 min simulated ischemia; for percentage of myocytes killed; preconditioning effect of the agent after MLA pretreatment vs vehicle pretreatment: MLA (30 or 300 ng/ml) 24 h prior to 5 min exposure to the agent, 10 min agent-free, then 90 min simulated ischemia
# Protocol: Ventricular cells were cultured from chick embryos 14 days in ovo (Spafas Inc., Storrs, Conn.) as previously described (16, 23). Cells were cultivated in a humidified 5% CO2 -95% air mixture at 37 C. […] The medium was changed to a HEPES-buffered medium containing (mM) 139 NaCl, 4.7 KCl, 0.5 MgCl2, 0.9 CaCl2, 5 HEPES (N-2-hydroxyethylpiperazine-N'-2-ethanesulfonic acid) and 2% fetal bovine serum, pH 7.4, 37 C. before exposing the myocytes to the various conditions at 37 C. Control myocytes were maintained in HEPES-buffered medium under room air. Hypoxia and glucose deprivation were used to induce and simulate ischemia in the cultured cells. Hypoxia was produced by placing the cells in a hypoxic incubator (NuAire) where O2 was replaced by N2 as previously described (16,23).
# The extent of hypoxia-induced injury to the ventricular cell was quantitatively determined by the percentages of cells killed. To quantitate the % of cells killed, cells were exposed to a trypsin-EDTA Hanks' balanced salt solution for 10 minutes for detachment after the various treatment, followed by centrifugation (300×g for 10 minutes) and resuspension in culture media for counting in a hemocytometer. Only live cells sedimented and the cells counted represented those that survived (46). None of the sedimented cells subsequently counted included trypan blue. […] There was no protein in the culture media following a second 300×g centrifugation of resuspended cells previously treated with trypsin-EDTA.
# The percentage of cells killed was calculated as the number of cells obtained from the control group (representing cells not subjected to any hypoxia or drug treatment) minus the number of cells from the treatment group divided by number of cells in control group multiplied by 100%. […]
# In this experiment, myocytes were treated with either the vehicle (0.04% propylene glycol, 0.01% ethyl alcohol) or MLA 24 hours prior to a 5 minute exposure to 10 μM adenosine. Adenosine was removed by replacement of the culture medium with adenosine-free medium, and the cells were exposed to normal room air O2 for 10 minutes, followed by 90 minutes of simulated ischemia treatment.
# The experimental protocol utilized in these studies entailed pretreatment of myocytes with MLA for a 4 hour period 24 hours prior to exposure of the cardiac myocytes to 90 minutes of simulated ischemia. During this 90 minute simulated ischemia period, several cardioprotective agents were administered individually to cells and their protective effects were assessed.
# Additional experiments were performed to assess the differences in cardioprotection observed when MLA was administered as the second cardioprotective agent and an adenosine agonist, KATP channel opener or protein kinase C activator was administered as the first cardioprotective agent. The experiments were performed as follows: Cardiac myocytes were exposed to the first cardioprotective agent for 5 minutes and the agent was removed. Cells were then exposed to a period of simulated ischemia in the presence or absence of 300 ng/ml of MLA. The percentage of cells killed by simulated ischemia alone was 27±2% (n=9) in the absence of any treatment with any cardioprotective agent. When MLA was present during the simulated ischemia, the percentage of cells killed was reduced from 27±2% to 14±1.2%. When cells were exposed to 5 minutes of 10 μM pinacidil, a KATP channel opener followed by exposure to simulated ischemia (in the absence of MLA), the percentage of cells killed was 12.3±1. When the pinacidil-treated cells were exposed to simulated ischemia in the presence of MLA, the percentage of cells killed was reduced from 12.3±1% to 6.3±1.2% (n=3). When cells were exposed to 5 minutes of 1 μM PMA, a PKC activator, followed by exposure to simulated ischemia (in the absence of MLA), the percentage of cells killed was 14±1. […]
# [3] = target: A1 adenosine receptor; conditions: Table II; cited from earlier work
# [4] = target: A2a adenosine receptor; conditions: Table II; cited from earlier work
# [5] = target: A3 adenosine receptor; conditions: cited from earlier work
# [6] = target: A2; conditions: table of Compound 8; cited from earlier work
# [7] = 5 min exposure to first agent (10 μM pinacidil, 1 μM PMA or 10 μM adenosine), removed, then simulated ischemia in the absence of MLA
# [8] = 5 min exposure to first agent (10 μM pinacidil, 1 μM PMA or 10 μM adenosine), removed, then simulated ischemia in the presence of 300 ng/ml MLA
compound,measurement,setting,value
COc1ccccc1/C=C/c1nc2c(c(=O)n(C)c(=O)n2C)n1C [17b],A1 /A2 ratio,[1],18
COc1cccc(/C=C/c2nc3c(c(=O)n(C)c(=O)n3C)n2C)c1 [19b],A1 /A2 ratio,[1],64
Cn1c(=O)c2c(nc(/C=C/c3cccc(C(F)(F)F)c3)n2C)n(C)c1=O [20b],A1 /A2 ratio,[1],25
Cn1c(=O)c2c(nc(/C=C/c3cccc([N+](=O)[O-])c3)n2C)n(C)c1=O [21b],A1 /A2 ratio,[1],11
Cn1c(=O)c2c(nc(/C=C/c3cccc(N)c3)n2C)n(C)c1=O [22b],A1 /A2 ratio,[1],30
Cn1c(=O)c2c(nc(/C=C/c3cccc(F)c3)n2C)n(C)c1=O [27b],A1 /A2 ratio,[1],190
COc1ccc(/C=C/c2nc3c(c(=O)n(C)c(=O)n3C)n2C)cc1 [29b],A1 /A2 ratio,[1],44
COc1ccc(/C=C/c2nc3c(c(=O)n(C)c(=O)n3C)n2C)cc1OC [32b],A1 /A2 ratio,[1],70
COc1cc(/C=C/c2nc3c([nH]2)c(=O)n(C)c(=O)n3C)cc(OC)c1 [33a],A1 /A2 ratio,[1],25
COc1cc(/C=C/c2nc3c(c(=O)n(C)c(=O)n3C)n2C)cc(OC)c1 [33b],A1 /A2 ratio,[1],> 200
Cn1c(=O)c2c(nc(/C=C/c3cc(F)cc(F)c3)n2C)n(C)c1=O [34b],A1 /A2 ratio,[1],230
COc1ccc(/C=C/c2nc3c(c(=O)n(C)c(=O)n3C)n2C)c(OC)c1OC [43b],A1 /A2 ratio,[1],34
COc1cc(/C=C/c2nc3c(c(=O)n(C)c(=O)n3C)n2C)cc(OC)c1OC [44b],A1 /A2 ratio,[1],70
CCCn1c(=O)c2c(nc(/C=C/c3cc(OC)cc(OC)c3)n2C)n(CCC)c1=O [53b],A1 /A2 ratio,[1],110
"OC[C@H]1O[C@@H](n2cnc3c(NC4CCCC4)nc(Cl)nc32)[C@H](O)[C@@H]1O [CCPA, 2-chloro-N^6-cyclopentyl-adenosine]",number of cells killed; agent present during prolonged ischemia after MLA pretreatment vs vehicle pretreatment,[2],greater reduction in the number of cells killed
same,percentage of myocytes killed; preconditioning effect of the agent after MLA pretreatment vs vehicle pretreatment,[2],significantly reduced the percentage of myocytes killed; also recorded: enhanced by pretreatment of myocytes with MLA
"CCNC(=O)[C@H]1O[C@@H](n2cnc3c(NC(=O)Nc4ccccc4C(F)(F)F)ncnc32)[C@H](O)[C@@H]1O [Compound 4d, N^6-((2-trifluoromethyl)carbamoyl)adenosine-5'uronamide]",Ki,[3],384 nM
same,Ki,[4],> 10000 nM
same,Ki,[5]; Table II,54 nM
"CCNC(=O)[C@H]1O[C@@H](n2cnc3c(NC(=O)Nc4cccc(I)c4)ncnc32)[C@H](O)[C@@H]1O [Compound 4q, N^6-((3-iodophenyl)carbamoyl)adenosine-5'uronamide]",Ki,[4],3940 nM
same,Ki,[5]; Table II,30 nM
NCCNC(=O)Cc1ccc(NC(=O)Cc2ccc(Nc3ncnc4c3ncn4[C@@H]3O[C@H](CO)[C@@H](O)[C@H]3O)cc2)cc1 [Compound 8],Ki,[5]; table of Compound 8,4 nM
same,Ki,[6],210 nM
"CNC(=O)[C@H]1O[C@@H](n2cnc3c(NOc4ccccc4)ncnc32)[C@H](O)[C@@H]1O [Compound 11, 6-(O-Phenylhydroxylamino)purine-9-beta-ribofuranoside-5'-N-methyluronamide]",Ki,[3],2060 nM
same,Ki,[4],66300 nM
same,Ki,[5]; Table II,1340 nM
"CNC(=O)[C@H]1O[C@@H](n2cnc3c(NCc4cccc(I)c4)ncnc32)[C@H](O)[C@@H]1O [IB-MECA, N^6-(3-iodobenzyl)adenosine-5'-N-methyluronamide]",number of cells killed; agent present during prolonged ischemia after MLA pretreatment vs vehicle pretreatment,[2],synergistic cardioprotective effect
same,percentage of myocytes killed; preconditioning effect of the agent after MLA pretreatment vs vehicle pretreatment,[2],significantly reduced the percentage of myocytes killed; also recorded: enhanced by pretreatment of myocytes with MLA
"CCNC(=O)[C@H]1O[C@@H](n2cnc3c(NC4CCCCC4)ncnc32)[C@H](O)[C@@H]1O [N^6 -cyclohexyl NECA, N6-cyclohexyl 5'-N-ethylcarboxamidoadenosine]",Ki,[3],0.43 nM
same,Ki,[4],170 nM
same,Ki,[5]; Table II,16 nM
"CCCCCCCCCCCCCC(=O)O[C@@H]1[C@@H](C)[C@@]2(O)[C@@H](C=C(CO)C[C@]3(O)C(=O)C(C)=C[C@@H]23)[C@@H]2C(C)(C)[C@]12OC(C)=O [PMA, Phorbol 12-myristate 13-acetate]",percentage of cells killed,[2]; [7],14±1%
same,percentage of cells killed,[2]; [8],10.5±1%
same,percentage of myocytes killed; preconditioning effect of the agent after MLA pretreatment vs vehicle pretreatment,[2],enhanced by pretreatment with MLA
Nc1ncnc2c1ncn2[C@@H]1O[C@H](CO)[C@@H](O)[C@H]1O [adenosine],percentage of cells killed,[2]; [7],12±1.4%
same,percentage of cells killed,[2]; [8],7.4±1.2%
same,percentage of myocytes killed; preconditioning effect of the agent after MLA pretreatment vs vehicle pretreatment,[2],significantly decreased the percentage of myocytes killed
CC(=O)Nc1cccc(/C=C/c2nc3c(c(=O)n(C)c(=O)n3C)n2C)c1 [compound 23],A1 /A2 ratio,[1],240
Cn1c(=O)c2c(nc(/C=C/c3cccc(NC(=O)CCC(=O)O)c3)n2C)n(C)c1=O [compound 24],A1 /A2 ratio,[1],250
Cn1c(=O)c2c(nc(/C=C/c3cccc(NC(=O)OC(C)(C)C)c3)n2C)n(C)c1=O [compound 25],A1 /A2 ratio,[1],30
Cn1c(=O)c2c(nc(/C=C/c3cccc(N(C(=O)OC(C)(C)C)C(=O)OC(C)(C)C)c3)n2C)n(C)c1=O [compound 26],A1 /A2 ratio,[1],15
COc1cc(/C=C/c2nc3c(c(=O)n(C)c(=O)n3C)n2C)cc(OC)c1O [compound 35],A1 /A2 ratio,[1],19
COc1cc(/C=C/c2nc3c(c(=O)n(C)c(=O)n3C)n2C)cc(OC)c1OC(C)=O [compound 36],A1 /A2 ratio,[1],93
COc1cc(/C=C/c2nc3c(c(=O)n(C)c(=O)n3C)n2C)cc(OC)c1OCCCCN [compound 38],A1 /A2 ratio,[1],36
COc1cc(/C=C/c2nc3c(c(=O)n(C)c(=O)n3C)n2C)cc(OC)c1OCCCCNC(=O)OC(C)(C)C [compound 39],A1 /A2 ratio,[1],42
COc1cc(/C=C/c2nc3c(c(=O)n(C)c(=O)n3C)n2C)cc(OC)c1OC/C=C/CN [compound 40],A1 /A2 ratio,[1],28
COc1cc(/C=C/c2nc3c(c(=O)n(C)c(=O)n3C)n2C)cc(OC)c1OC/C=C/CNC(C)=O [compound 41],A1 /A2 ratio,[1],> 50
COc1cc(/C=C/c2nc3c(c(=O)n(C)c(=O)n3C)n2C)cc(OC)c1OC/C=C/CNC(=O)OC(C)(C)C [compound 42],A1 /A2 ratio,[1],> 40
C=CCn1c(=O)c2c(nc(/C=C/c3cc(OC)c(OC)c(OC)c3)n2C)n(CC=C)c1=O [compound 46],A1 /A2 ratio,[1],13
CC(N/C(=N\C#N)Nc1ccncc1)C(C)(C)C (centres unmarked) [pinacidil],percentage of cells killed,[2]; [7],12.3±1%
same,percentage of cells killed,[2]; [8],6.3±1.2%
same,number of cells killed; agent present during prolonged ischemia after MLA pretreatment vs vehicle pretreatment,[2],greater reduction in the number of cells killed
same,percentage of myocytes killed; preconditioning effect of the agent after MLA pretreatment vs vehicle pretreatment,[2],enhanced the preconditioning response mediated by pinacidil
Monophosphoryl lipid A [MLA],percentage of cells killed,"[2]; 300 ng/ml MLA present during simulated ischemia, no first agent, untreated 27±2%",14±1.2%
same,percentage of cell death in response to prolonged ischemia,"[2]; MLA 30 and 300 ng/ml for 4 h, 24 h prior to 90 min simulated ischemia, vs untreated, p<0.01",significantly lowered the percentage of cell death
same,percentage of cells killed during prolonged ischemia after preconditioning ischemia,"[2]; MLA 4 h pretreatment, 24 h later 5 min preconditioning ischemia, 10 min recovery, 90 min simulated ischemia",dose-dependent reduction in the percentage of cells killed
